Values joined by “and” are separate entries in the source; they are usually repeats but may differ in a detail not shown here. Identical values can stand only once. Like-named read-outs stand apart in the source and are kept apart here. Marks after values point to notes of the source that are not given here. No end group written: not given here.
Tests used:
Female Kunming mice [1] = format: in vivo
Kunming mice [2] = format: in vivo
Kunming mice [3] = details: mouse, in vivo
male BALB/c mice [4] = experiment: cancer-induced pain (CIP) model, thermosensitive test; format: in vivo; details: heat radiation stimulation
Protocol: Influence of Analgesic Polypeptides on Neuralgia in a Cancer-Induced Pain (CIP) Model
A number of male BALB/c mice each weighing 25-30 g were used.
Von Fery monofilament; a microsyringe, 5 mg/mL solutions of polypeptides I, II and II I; normal saline.
(§1) BALB/c mice were taken, and the right sciatic nerve was exposed; ascites containing 5×10^4 Meth A sarcoma cells were injected into the proximal nerve near the sciatic nerve trochanter far from the tendon branch of the posterior biceps, the wound was closed, and the same volume of normal saline was injected into the left side by performing a sham operation.
1.3.1 Thermosensitive Test
On the 4th, 7th, 10th and 14th days after inoculation, the latency of foot lifting caused by heat radiation stimulation to animals was observed, and the heat radiation intensity was adjusted to cause the latency of foot lifting of normal mice to be (10±2) s.
All data was expressed as M±SD and subjected to one-way ANOVA.

male BALB/c mice [5] = experiment: cancer-induced pain (CIP) model, gross behavior; format: in vivo; details: 14th day after inoculation
Protocol: as §1
On the 4th, 7th, 10th and 14th days after inoculation, spontaneous pain and foot drop and the like occurred before the occurrence of thermal sensitivity and mechanical pain sensitivity behaviors, […]

SD rats = experiment: pain threshold of trigeminal nerve (trigeminal neuralgia model); format: in vivo; details: for highest pain threshold on the operative side / pain threshold on the opposite side: 3 h after injection; for Pain threshold: intraperitoneal
Female Kunming mice [6] = system: Female Kunming mice
Female Kunming mice [7] = system: Female Kunming mice; remark: listed apart in the source
Female Kunming mice [8] = system: Female Kunming mice; remark: listed apart in the source
[9] = 50 μg/kg, injected subcutaneously
[10] = 100 μg/kg, injected subcutaneously

**Q.** For “GSCSTPPSAVLYC (cysteine pairing not given here) [Polypeptide II]”, which Pain threshold (Female Kunming mice [1]; 0 min) is on record?
**A.** 27.43 ± 0.54^∧ s

**Q.** And the Pain threshold (Female Kunming mice [1]; mouse, in vivo, ip)?
**A.** 42.54 ± 0.24^∧ s and 22.33 ± 0.36 s and 27.45 ± 0.52 s and 31.34 ± 0.45*^∧ s and 25.43 ± 0.54^∧ s and 26.24 ± 0.42 s

**Q.** And the “heat thresholds of mice compared with the normal saline negative control group” value (Female Kunming mice [1]; mouse, in vivo, ip)?
**A.** effectively increase the heat thresholds of mice

**Q.** What about the “increase of the pain threshold compared with the normal saline group and the conotoxin group” value (Female Kunming mice [1]; mouse, in vivo, ip) of the same sequence?
**A.** significantly higher

**Q.** What about the “Pain threshold (tail flick)” value (Kunming mice [2]; 0 min) of the same sequence?
**A.** 2.43 ± 0.21^∧ s

**Q.** What about the “Pain threshold (tail flick)” value (Kunming mice [2]; 15 min) of the same sequence?
**A.** 2.52 ± 0.24 s

**Q.** What about the “Pain threshold (tail flick)” value (Kunming mice [2]; 30 min) of the same sequence?
**A.** 2.31 ± 0.36 s

**Q.** And the “Pain threshold (tail flick)” value (Kunming mice [2]; 45 min)?
**A.** 2.45 ± 0.12 s

**Q.** And the “Pain threshold (tail flick)” value (Kunming mice [2]; 60 min)?
**A.** 2.12 ± 0.41 s

**Q.** What about the “Pain threshold (tail flick)” value (Kunming mice [2]; 75 min) of the same sequence?
**A.** 2.23 ± 0.14^∧ s

**Q.** What about the “Pain threshold (tail flick)” value (Kunming mice [2]; 90 min) of the same sequence?
**A.** 2.24 ± 0.12 s

**Q.** What about the “analgesic effects in formalin-induced pain experiments” value (Kunming mice [3]) of the same sequence?
**A.** good analgesic effects

**Q.** What about the “cumulative foot licking time, Phase I” value (Kunming mice [3]) of the same sequence?
**A.** 48.20 ± 11.31*^

**Q.** And the “cumulative foot licking time, Phase II” value (Kunming mice [3])?
**A.** 40.53 ± 14.32

**Q.** And the “Latency of foot lifting before administration” value (male BALB/c mice [4]; before administration)?
**A.** 10.12 ± 1.64

**Q.** And the “Latency (D) of foot lifting after administration” value (“Latency (D) of foot lifting” for short) (male BALB/c mice [4]; day 4)?
**A.** 9.87 ± 0.78

**Q.** What about the “Latency (D) of foot lifting” value (male BALB/c mice [4]; day 7) of the same sequence?
**A.** 8.75 ± 0.89

**Q.** What about the “Latency (D) of foot lifting” value (male BALB/c mice [4]; day 10) of the same sequence?
**A.** 8.31 ± 0.92

**Q.** What about the “Latency (D) of foot lifting” value (male BALB/c mice [4]; day 14) of the same sequence?
**A.** 6.56 ± 0.56

**Q.** And the “left foot lifting behavior” value (male BALB/c mice [5])?
**A.** obviously observed

**Q.** What about the animal reaction thresholds (SD rats; 50 μg/kg and 100 μg/kg, injected subcutaneously) of the same sequence?
**A.** significantly increased

**Q.** What about the “time the pain thresholds lasted” value (SD rats; [9]) of the same sequence?
**A.** 1 h

**Q.** What about the “highest pain threshold on the operative side” value (SD rats; [9]) of the same sequence?
**A.** 2.3 ± 0.5 g

**Q.** What about the “pain threshold on the opposite side” value (SD rats; [9]) of the same sequence?
**A.** 1.2 ± 0.2 g

**Q.** What about the “time the effect on the operative side lasted” value (SD rats; [10]) of the same sequence?
**A.** about 8 h

**Q.** What about the “highest pain threshold on the operative side” value (SD rats; [10]) of the same sequence?
**A.** 7.4 ± 0.9 g

**Q.** And the “pain threshold on the opposite side” value (SD rats; [10])?
**A.** 3.2 ± 1.3 g

**Q.** What about the pain threshold change (SD rats; 300 μg/kg, subcutaneously) of the same sequence?
**A.** not significantly increased

**Q.** And the Pain threshold (SD rats; Dose 50 (μg/kg), 0 h)?
**A.** 25.56 ± 0.65 s

**Q.** What about the Pain threshold (SD rats; Dose 50 (μg/kg), 1 h) of the same sequence?
**A.** 25.23 ± 0.44 s

**Q.** What about the Pain threshold (SD rats; Dose 50 (μg/kg), 2 h) of the same sequence?
**A.** 26.62 ± 0.56 s

**Q.** What about the Pain threshold (SD rats; Dose 50 (μg/kg), 3 h) of the same sequence?
**A.** 26.46 ± 0.62 s

**Q.** And the Pain threshold (SD rats; Dose 50 (μg/kg), 4 h)?
**A.** 27.15 ± 0.56 s

**Q.** And the Pain threshold (SD rats; Dose 50 (μg/kg), 5 h)?
**A.** 26.62 ± 0.13 s

**Q.** What about the Pain threshold (SD rats; Dose 100 (μg/kg), 0 h) of the same sequence?
**A.** 25.87 ± 0.23 s

**Q.** What about the Pain threshold (SD rats; Dose 100 (μg/kg), 1 h) of the same sequence?
**A.** 26.12 ± 0.62 s

**Q.** What about the Pain threshold (SD rats; Dose 100 (μg/kg), 2 h) of the same sequence?
**A.** 27.16 ± 0.32 s

**Q.** And the Pain threshold (SD rats; Dose 100 (μg/kg), 3 h)?
**A.** 27.65 ± 0.32 s

**Q.** What about the Pain threshold (SD rats; Dose 100 (μg/kg), 4 h) of the same sequence?
**A.** 26.23 ± 0.62 s

**Q.** What about the Pain threshold (SD rats; Dose 100 (μg/kg), 5 h) of the same sequence?
**A.** 25.13 ± 0.32 s

**Q.** And the Pain threshold (SD rats; Dose 300 (μg/kg), 0 h)?
**A.** 26.41 ± 0.66 s

**Q.** What about the Pain threshold (SD rats; Dose 300 (μg/kg), 1 h) of the same sequence?
**A.** 30.12 ± 0.56 s

**Q.** And the Pain threshold (SD rats; Dose 300 (μg/kg), 2 h)?
**A.** 30.61 ± 0.62 s

**Q.** And the Pain threshold (SD rats; Dose 300 (μg/kg), 3 h)?
**A.** 29.52 ± 0.95 s

**Q.** And the Pain threshold (SD rats; Dose 300 (μg/kg), 4 h)?
**A.** 28.62 ± 0.61 s

**Q.** And the Pain threshold (SD rats; Dose 300 (μg/kg), 5 h)?
**A.** 27.92 ± 0.61 s

**Q.** And the “Movement distances of mice in open field tests” value (Female Kunming mice [6]; 1 h)?
**A.** 19.47 ± 1.32^

**Q.** And the “Movement distances of mice in the center area in open field tests” value (Female Kunming mice [6]; 1 h)?
**A.** 19.47 ± 1.32^

**Q.** What about the “Movement distances of mice in the peripheral area in open field tests” value (Female Kunming mice [6]; 1 h) of the same sequence?
**A.** 19.47 ± 1.32^

**Q.** What about the “Number of entrances to the center area in open field tests” value (“Number of entrances to the center area” below) (Female Kunming mice [6]; 1 h) of the same sequence?
**A.** 19.47 ± 1.32^

**Q.** What about the “Number of entrances to the peripheral area in open field tests” value (Female Kunming mice [6]; 1 h) of the same sequence?
**A.** 19.47 ± 1.32^

**Q.** And the “Residence time in the center area in open field tests” value (from here on “Residence time in the center area”) (Female Kunming mice [6]; 1 h)?
**A.** 19.47 ± 1.32^ s

**Q.** And the “Residence time in the peripheral area in open field tests” value (from here on “Residence time in the peripheral area”) (Female Kunming mice [6]; 1 h)?
**A.** 19.47 ± 1.32^ s

**Q.** And the “Movement distances of mice in open field tests” value (Female Kunming mice [6]; 24 h)?
**A.** 19.03 ± 2.48 m

**Q.** And the “Movement distances of mice in the center area in open field tests” value (Female Kunming mice [6]; 24 h)?
**A.** 19.03 ± 2.48 m

**Q.** What about the “Movement distances of mice in the peripheral area in open field tests” value (Female Kunming mice [6]; 24 h) of the same sequence?
**A.** 19.03 ± 2.48 m

**Q.** What about the “Number of entrances to the center area” value (Female Kunming mice [6]; 24 h) of the same sequence?
**A.** 19.03 ± 2.48

**Q.** And the “Number of entrances to the peripheral area in open field tests” value (Female Kunming mice [6]; 24 h)?
**A.** 19.03 ± 2.48

**Q.** What about the “Residence time in the center area” value (Female Kunming mice [6]; 24 h) of the same sequence?
**A.** 19.03 ± 2.48 s

**Q.** What about the “Residence time in the peripheral area” value (Female Kunming mice [6]; 24 h) of the same sequence?
**A.** 19.03 ± 2.48 s

**Q.** What about the “Movement distances of mice in open field tests” value (Female Kunming mice [6]; Time 0) of the same sequence?
**A.** 20.98 ± 1.28 m

**Q.** What about the “Movement distances of mice in the center area in open field tests” value (Female Kunming mice [6]; Time 0) of the same sequence?
**A.** 20.98 ±1.28 m

**Q.** And the “Movement distances of mice in the peripheral area in open field tests” value (Female Kunming mice [6]; Time 0)?
**A.** 20.98 ± 1.28 m

**Q.** What about the “Number of entrances to the center area” value (Female Kunming mice [6]; Time 0) of the same sequence?
**A.** 20.98 ± 1.28

**Q.** What about the “Number of entrances to the peripheral area in open field tests” value (Female Kunming mice [6]; Time 0) of the same sequence?
**A.** 20.98 ± 1.28

**Q.** What about the “Residence time in the center area” value (Female Kunming mice [6]; Time 0) of the same sequence?
**A.** 20.98 ± 1.28 s

**Q.** What about the “Residence time in the peripheral area” value (Female Kunming mice [6]; Time 0) of the same sequence?
**A.** 20.98 ± 1.28 s

**Q.** And the “side effects compared with conotoxin (open field)” value (Female Kunming mice [6]; mouse, in vivo, ip)?
**A.** lower side effects

**Q.** What about the “various indexes in open field experiments compared with the normal saline group” value (Female Kunming mice [6]; mouse, in vivo, ip) of the same sequence?
**A.** no significant difference

**Q.** What about the “Movement duration of mice in forced swimming tests” value (from here on “Movement duration of mice”) (Female Kunming mice [7]; 1 h) of the same sequence?
**A.** 19.47 ± 1.32^ s

**Q.** And the “Movement duration of mice” value (Female Kunming mice [7]; 24 h)?
**A.** 19.03 ± 2.48 s

**Q.** What about the “Movement duration of mice” value (Female Kunming mice [7]; Time 0) of the same sequence?
**A.** 20.98 ± 1.28 s

**Q.** What about the “toxic side effects compared with the conotoxin (forced swimming)” value (Female Kunming mice [7]; mouse, in vivo, ip) of the same sequence?
**A.** lower toxic side effects

**Q.** And the “Duration of the immobility of mice in tail suspension tests” value (“Duration of the immobility of mice” below) (Female Kunming mice [8]; 1 h)?
**A.** 19.47 ± 1.32^ s

**Q.** What about the “Duration of the immobility of mice” value (Female Kunming mice [8]; 24 h) of the same sequence?
**A.** 19.03 ± 2.48 s

**Q.** What about the “Duration of the immobility of mice” value (Female Kunming mice [8]; Time 0) of the same sequence?
**A.** 20.98 ± 1.28 s

**Q.** What about the “data of tail suspension test compared with the normal saline group” value (Female Kunming mice [8]; mouse, in vivo, ip) of the same sequence?
**A.** no significant difference

**Q.** What about the “toxic side effects compared with the conotoxin (tail suspension)” value (Female Kunming mice [8]; mouse, in vivo, ip) of the same sequence?
**A.** lower toxic side effects

From patent US11192921B2 (priority 2017, dated 2021)
